Measurements from paper PMC7282810, “Existence and functions of a kisspeptin neuropeptide signaling system in a non-chordate deuterostome species” (eLife, 2020).
“Also recorded” adds a separate entry of the source. Where two headings read alike, the source gives them in different places. Where a SMILES comes first, the peptide text is derived from it. Bridges are numbered along the chain shown (N, C = ends). Where no end group is shown, it is not given here. [ ]: non-standard residue; d: D form.

Experiments:
AjKissR2-EGFP = assay: Receptor internalization (translocation) by confocal microscopy, AjKissR2-EGFP; type: cell-based, Apostichopus japonicus; settings: 1.0 μM ligand, 60 min
Description: For receptor-surface expression analysis, HEK293 cells expressing AjKissR1/2-EGFP were seeded onto glass coverslips in 12-well plates, coated with 0.1 mg/mL poly-L-lysine, and allowed to attach overnight under normal growth conditions ([Li et al., 2010]). The cells were washed three times with PBS and further stained with the membrane probe DiI (Beyotime) at 37°C for 5–10 min, fixed with 4% paraformaldehyde for 10 min, and then incubated with DAPI (Beyotime) for 5–10 min. For the translocation assays, the receptor-expressing cells were treated with 1.0 μM of various stimuli for 60 min, washed three times with PBS and then fixed with 4% paraformaldehyde in PBS for 10 min at room temperature. Finally, the cells were mounted in mounting reagent (DTT/PBS/glycerol, 1:8:2) and visualized by fluorescence microscopy on a Zeiss laser scanning confocal microscope, which was attached to a Zeiss Axiovert 200 microscope and linked to an LSM5 computer system.

[1] = test system: zebrafish kisspeptin receptor DrKiss1Rb; assay: Intracellular Ca2+ mobilization (Fura-2/AM) in DrKiss1Rb-expressing HEK293 cells; type: cell-based; settings: 1.0 μM peptide, HEK293, Fura-2/AM
Description: (§1) The fluorescent Ca^2+ indicator Fura-2/AM was used to detect intracellular calcium flux ([Li et al., 2010]). Briefly, the HEK293 cells expressing the AjKissR1, AjKissR2 or vertebrate kisspeptin receptor were washed twice with PBS and suspended at 5 × 10^6 cells/mL in Hanks’ balanced salt solution. The cells were then loaded with 3.0 μM Fura-2/AM for 30 min and washed twice in Hanks’ solution. They were then stimulated with the indicated concentrations of different predicted A. japonicus kisspeptins or vertebrate kisspeptins. Finally, intracellular calcium flux was measured for 60 s, by determining the ratio of excitation wavelengths at 340 and 380 nm using a fluorescence spectrometer (Infinite 200 PRO, Tecan, Männedorf, Switzerland). All of the experiments for measuring Ca^2+ mobilization were repeated independently at least three times.

[2] = test system: zebrafish kisspeptin receptor DrKiss1Ra; assay: Intracellular Ca2+ mobilization (Fura-2/AM) in DrKiss1Ra-expressing HEK293 cells; type: cell-based; settings: 1.0 μM peptide, HEK293, Fura-2/AM
Description: as §1

AjKissR2 [3] = target: T1, AjKissR2 (Apostichopus japonicus, UniProt A0A5B7LIE4); assay: cell-based; type: cell-based; settings: for AUC: Ca2+ trace area under curve, HEK293/AjKissR2
T1 sequence (A0A5B7LIE4 1-327): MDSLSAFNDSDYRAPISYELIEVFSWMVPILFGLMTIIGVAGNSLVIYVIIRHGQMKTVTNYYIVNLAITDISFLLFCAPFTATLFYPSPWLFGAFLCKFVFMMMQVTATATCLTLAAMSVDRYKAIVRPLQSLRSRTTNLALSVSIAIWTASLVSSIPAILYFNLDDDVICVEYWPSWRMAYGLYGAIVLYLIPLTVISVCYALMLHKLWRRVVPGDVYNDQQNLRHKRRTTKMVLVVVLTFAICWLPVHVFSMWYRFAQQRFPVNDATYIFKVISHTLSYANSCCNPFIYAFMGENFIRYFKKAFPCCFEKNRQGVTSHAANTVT
Description: as §1

AjKissR1 [4] = target: T2, AjKissR1 (Apostichopus japonicus, UniProt A0A5B7LK60); assay: cell-based; type: cell-based
T2 sequence (A0A5B7LK60 1-378): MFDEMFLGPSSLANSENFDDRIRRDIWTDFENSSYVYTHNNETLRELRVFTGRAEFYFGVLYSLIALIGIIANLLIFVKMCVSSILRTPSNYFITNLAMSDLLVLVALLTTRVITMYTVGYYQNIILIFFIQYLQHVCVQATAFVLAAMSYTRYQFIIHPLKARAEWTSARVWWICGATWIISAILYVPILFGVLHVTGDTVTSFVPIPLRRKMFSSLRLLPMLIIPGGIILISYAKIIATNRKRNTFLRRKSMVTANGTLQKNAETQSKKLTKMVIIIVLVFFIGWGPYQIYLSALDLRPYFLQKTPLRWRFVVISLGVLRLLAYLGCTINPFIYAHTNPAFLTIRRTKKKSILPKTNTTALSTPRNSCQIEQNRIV
Description: as §1

AjKissR1 [5] = target: T2, AjKissR1; assay: Ligand competition binding assay (FITC-AjKiss1a, FACS), HEK293/AjKissR1; settings: 1.0 μM FITC-AjKiss1a, read-out: IC50 (competitive displacement of FITC-AjKiss1a)
Description: (§2) A fluorescence-activated cell sorter (FACS) was used to detect the binding ability of kisspeptins with AjKissR1 or AjKissR2. HEK293 cells expressing FLAG–AjKissR1 or FLAG–AjKissR2 were washed with PBS that contained 0.2% bovine serum albumin (FACS buffer). We designed and synthesized an N-terminal FITC-labeled AjKiss1a peptide (see 'Key resources table'). Different kisspeptins were diluted in the FACS buffer to different concentrations, then added to cells that were incubated on ice for 60–90 min. Cells were washed thrice with the FACS buffer and re-suspended in the FACS buffer with 1% paraformaldehyde for 15 min. The binding activity of the indicated kisspeptin peptides with AjKissR1 or AjKissR2 was determined by measuring the fluorescence of FITC and was presented as a percentage of total binding.

[6] = test system: human kisspeptin receptor (HsKiss1R); assay: Intracellular Ca2+ mobilization (Fura-2/AM) in HsKiss1R-expressing HEK293 cells; type: cell-based; settings: 1.0 μM peptide, HEK293, Fura-2/AM
Description: as §1

AjKissR2 [7] = target: T1, AjKissR2; type: cell-based; settings: Ca2+ trace (Fura-2/AM) area under curve, AjKiss1a at Log[M] -10 (100 pM), HEK293/AjKissR2, 68 s trace
AjKissR2 [8] = target: T1, AjKissR2; assay: Ligand competition binding assay (FITC-AjKiss1a, FACS), HEK293/AjKissR2; settings: 1.0 μM FITC-AjKiss1a, read-out: IC50 (competitive displacement of FITC-AjKiss1a)
Description: as §2

[9] = test system: cultured oocytes of sea cucumber; assay: Immunofluorescence staining of p-ERK signal in cultured oocytes (confocal microscopy); type: cell-based, Apostichopus japonicus; settings: 4-hr pre-treatment with pep234
Description: Paraffin sections were baked at 60°C for 2–4 hr and placed in xylene for 15 min, twice. The slides were washed twice in 100% ethanol for 10 min each, then in 95% ethanol for 10 min, 85% ethanol for 5 min, 70% ethanol for 5 min, and 50% ethanol for 5 min, followed by washing with dH2O for 5 min, and finally washing with PBS for 5 min. Antigen unmasking was performed in sodium citrate buffer (pH 6) for 10 min at 97°C, and then cooled to room temperature. Endogenous peroxidases were blocked by 10 min incubation in 3.0% hydrogen peroxide. Nonspecific antigens were blocked by a 60 min incubation in 0.3% bovine serum albumin (BSA) in TBST. Slides were incubated with primary antibodies overnight after removing the blocking solution, followed by 2 hr incubation with fluorescein isothiocyanate (FITC)-conjugated secondary antibodies (FITC-labeled goat anti-rabbit IgG (H+L), Beyotime). […]
(§3) For in vitro experiments, the ovary and respiratory tree tissues were cut into small pieces of approximately 1 mm^3 and cultured in Leibovitz L-15 medium (HyClone) supplemented with 12.0 g/L NaCl, 0.32 g/L KCl, 0.36 g/L CaCl2, 0.6 g/L Na2SO4, 2.4 g/L MgCl2, 0.6 g/L glucose at 18°C in a humidified incubator ([Wang et al., 2020]). For ERK1/2 phosphorylation or immunofluorescence assays, samples were evaluated or fixed after 2 hr of ligand/PBS administration, with a 4 hr pre-treatment of pep234/PBS.

[10] = test system: cultured oocytes of sea cucumber; assay: ERK1/2 phosphorylation (western blot) in cultured ovary / oocytes of sea cucumber; type: cell-based, Apostichopus japonicus; settings: pep234 1.0 μM, 4-hr pre-treatment; DrKiss1-10 or AjKiss1b-10 administrated cells
Description: To examine the phosphorylation of ERK, cells that expressed AjKissr1/2 or other GPR54s were incubated for the indicated times with different concentrations of kisspeptins. Subsequently, cells were lysed with lysis buffer (Beyotime) that contained protease inhibitor (Roche) at 4°C for 30 min on a rocker and then scraped. Proteins were then electrophoresed on a 10% SDS polyacrylamide gel and transferred to polyvinylidene difluoride (PVDF) membranes. Membranes were blocked with 5% skimmed milk, then probed with rabbit anti-phospho-ERK1/2(Thr^202/Tyr^204) antibody (1:2000; Cell Signaling Technology), followed by detection using HRP-conjugated goat anti-rabbit IgG (Beyotime). Blots were stripped and reprobed using anti-ERK1/2 antibody (1:2000; Cell Signaling Technology) as a control for protein loading.
as §3

FLAG–AjKissR2 = target: T3, FLAG–AjKissR2 (Apostichopus japonicus); assay: competition with 1.0 uM FITC-AjKiss1a
T3 chain: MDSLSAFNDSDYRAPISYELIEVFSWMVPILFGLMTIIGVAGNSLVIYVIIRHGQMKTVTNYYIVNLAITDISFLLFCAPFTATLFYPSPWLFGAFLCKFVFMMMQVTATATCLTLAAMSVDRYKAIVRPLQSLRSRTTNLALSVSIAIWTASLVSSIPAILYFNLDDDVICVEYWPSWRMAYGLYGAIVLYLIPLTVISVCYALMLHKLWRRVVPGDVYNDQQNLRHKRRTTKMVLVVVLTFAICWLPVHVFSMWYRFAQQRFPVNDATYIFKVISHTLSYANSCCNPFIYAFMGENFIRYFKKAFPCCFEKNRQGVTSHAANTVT

[11] = target: FLAG–AjKissR1 (Apostichopus japonicus)
[12] = target: FLAG–AjKissR1 (Apostichopus japonicus); assay: flow cytometry on cells; ligand competition: 1.0 uM FITC-AjKiss1a with unlabeled kisspeptins at the indicated concentrations on HEK293 cells expressing FLAG-AjKissR1 or FLAG-AjKissR2; on ice 60-90 min; PBS with 0.2% BSA; FITC fluorescence as percentage of total binding
[13] = log(agonist) vs. response (three parameters) fit of AUC, AjKiss1a on AjKissR2, 5 points
[14] = fit of AUC vs Log[AjKiss1a]M, source data Figure 3B1

## CC(C)C[C@H](NC(=O)[C@H](CO)NC(=O)CNC(=O)[C@H](C)N)C(=O)N[C@@H](CC(=O)O)C(=O)N[C@H]1CSSC[C@@H](C(=O)N[C@@H](CCC(=O)O)C(=O)N[C@@H](CC(=O)O)C(=O)N[C@H](C(=O)N[C@@H](CCC(=O)O)C(=O)N[C@@H](CCCNC(=N)N)C(=O)N[C@@H](CCCNC(=N)N)C(=O)NCC(=O)N[C@@H](CCCNC(=N)N)C(=O)N[C@@H](CCC(N)=O)C(=O)N2CCC[C@H]2C(=O)N[C@@H](CC(N)=O)C(=O)N[C@@H](CCCNC(=N)N)C(=O)N[C@@H](CC(N)=O)C(=O)N[C@@H](C)C(=O)N[C@@H](Cc2c[nH]cn2)C(=O)N[C@@H](Cc2ccc(O)cc2)C(=O)N[C@@H](CCCNC(=N)N)C(=O)N[C@H](C(=O)N[C@@H](CC(C)C)C(=O)N2CCC[C@H]2C(=O)N[C@@H](Cc2ccccc2)C(N)=O)[C@@H](C)O)C(C)C)NC(=O)[C@H](CO)NC(=O)[C@H](C)NC(=O)[C@H](CCC(=O)O)NC(=O)[C@H](CC(C)C)NC1=O [AjKiss1a] (H-AGSLDCLEASCEDVERRGRQPNRNAHYRTLPF-NH2; disulfide 6-11)
AjKissR2-EGFP
  Internalization of AjKissR2-EGFP from the plasma membrane to the cytoplasm (in words): significant internalization
[1]
  Activation of DrKiss1Rb, Ca2+ mobilization (in words): could activate; also recorded: could potentiate
[2]
  Activation of DrKiss1Ra, Ca2+ mobilization (in words): could activate; also recorded: could potentiate
AjKissR2 [3]
  EC50: 1.98 nM
AjKissR2 [3]; AjKiss1a at Log[M] -6 (1 μM)
  AUC: 24.14
AjKissR2 [3]; AjKiss1a at Log[M] -7 (100 nM)
  AUC: 24.83
AjKissR2 [3]; AjKiss1a at Log[M] -8 (10 nM)
  AUC: 24.2
AjKissR2 [3]; AjKiss1a at Log[M] -9 (1 nM)
  AUC: 11.14
AjKissR2 [3]; [13]
  Bottom (best-fit value): 6.057
  Span (best-fit value): 19.28
  Top (best-fit value): 25.34
AjKissR2 [3]; log(agonist) vs. response (three parameters) fit of AUC, Log[AjKiss1a]M, AjKissR2, 5 points
  LogEC50 (best-fit value): -8.703
AjKissR1 [4]
  EC50: 80.8 nM
AjKissR1 [4]; Log[AjKiss1a]M -6
  AUC (Ca2+ mobilization): 18.82
AjKissR1 [4]; Log[AjKiss1a]M -7
  AUC (Ca2+ mobilization): 12.93
AjKissR1 [4]; Log[AjKiss1a]M -8
  AUC (Ca2+ mobilization): 8.793
AjKissR1 [4]; Log[AjKiss1a]M -9
  AUC (Ca2+ mobilization): 6.715
AjKissR1 [4]; Log[AjKiss1a]M -10
  AUC (Ca2+ mobilization): 4.474
AjKissR1 [4]; [14]
  Bottom (best-fit value): 5.962
  LogEC50 (best-fit value): -7.093
  Span (best-fit value): 13.69
  Top (best-fit value): 19.65
AjKissR1 [5]
  IC50: 568 nM
[6]
  Activation of HsKiss1R, Ca2+ mobilization (in words): could activate; also recorded: could potentiate
AjKissR2 [7]
  AUC: 7.592
AjKissR2 [8]
  IC50: 95.2 nM

## Ac-[dA]NWNGFG[dW]RF-NH2 [pep234, vertebrate kisspeptin antagonist]
[9]
  Inhibition of AjKiss1b-10-induced p-ERK signal in oocytes, confocal microscopy (in words): inhibition
[10]
  Block of kisspeptin-induced ERK phosphorylation signal, western blot (in words): blocked

## SAVKNKNKSRARPPLLPF-NH2 [AjKiss1b (C-terminal amidated)]
FLAG–AjKissR2
  IC50: 1250 nM
[11]
  EC50 of intracellular Ca2+ mobilization (Fura-2/AM) in HEK293 cells expressing FLAG-AjKissR1: 8.06 nM
[12]
  IC50: 353 nM
